“Also recorded” adds a separate entry of the source.
Columns and labels:
[1] = tested on: splenocytes; experiment: NO scavenging activity in Concanavalin A-treated splenocytes (Griess assay); type: cell-based, C57BL/6 mouse; conditions: Mus musculus, Splenocyte, Concanavalin A 5 µg/mL, 72 hours, read-out: NO Scavenging Activity (%) (Mean±SD)
Summary of the method: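 Splenocytes from 8-week-old C57BL/6 mice at 5×10^6 cells/mL in RPMI 1640/10% FBS, stimulated with Concanavalin A (5 µg/mL) plus […] test composition added at plating. After 72 h culture, remaining NO in supernatant measured by Griess assay.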

[2] = Efficacy on collagen-induced rheumatoid arthritis (arthritis score); type: in vivo, DBA/1 male mice
Protocol: The experimental animals were 30 8-week-old DBA/1 male mice. […] The number of normal mice was set to five in order to minimize the number of experimental animals. The group administered with Compound (1) consisted of 5 to 6 mice, a minimal number required to obtain statistically meaningful data given the limited amount of the drug.
(§1) In order to establish a rheumatoid arthritis model, 100 µL of a mixture solution in which 2 mg/mL of chick type II collagen and 1 mg/mL of Complete Freund's Adjuvant (CFA) were mixed in a ratio of 1:1 was administered intradermally to each of the mouse tails. After 19 days, 100 µL of an emulsion in which 2 mg/mL of chick type II collagen and Incomplete Freund's Adjuvant (IFA) were mixed in a ratio of 1:1 was administered intradermally to each of the mouse tails.
The test substances of Table 23 were administered orally every day according to the drug dosing period and dosing frequency. As for the rheumatoid arthritis score (arthritis score), the score of each of the four paws was quantified according to the criteria shown in the following Table 24, and the individual scores were summed to generate the final score.
The experimental animals were 31 8-week-old DBA/1 male mice. […] The number of normal mice was set to five in order to minimize the number of experimental animals. The group administered with Compound (11) consisted of 5 mice, a minimal number required to obtain statistically meaningful data given the limited amount of the drug. Each of the remaining groups consisted of 7 mice, with two extra mice added to account for experimental error.
as §1
Oral administration was conducted daily according to the dose, dosing frequency and dosing period of Table 25. Based on the criteria shown in Table 24, rheumatoid arthritis score for the four paws were quantified and summed to generate the score.

[3] = target: JAK 1 (Homo sapiens, UniProt P23458); experiment: JAK Human TK kinase enzymatic radiometric assay (Eurofins), JAK 1; conditions: value close to 100 indicates low JAK activity of the compound
Chain of JAK 1 (P23458 whole entry): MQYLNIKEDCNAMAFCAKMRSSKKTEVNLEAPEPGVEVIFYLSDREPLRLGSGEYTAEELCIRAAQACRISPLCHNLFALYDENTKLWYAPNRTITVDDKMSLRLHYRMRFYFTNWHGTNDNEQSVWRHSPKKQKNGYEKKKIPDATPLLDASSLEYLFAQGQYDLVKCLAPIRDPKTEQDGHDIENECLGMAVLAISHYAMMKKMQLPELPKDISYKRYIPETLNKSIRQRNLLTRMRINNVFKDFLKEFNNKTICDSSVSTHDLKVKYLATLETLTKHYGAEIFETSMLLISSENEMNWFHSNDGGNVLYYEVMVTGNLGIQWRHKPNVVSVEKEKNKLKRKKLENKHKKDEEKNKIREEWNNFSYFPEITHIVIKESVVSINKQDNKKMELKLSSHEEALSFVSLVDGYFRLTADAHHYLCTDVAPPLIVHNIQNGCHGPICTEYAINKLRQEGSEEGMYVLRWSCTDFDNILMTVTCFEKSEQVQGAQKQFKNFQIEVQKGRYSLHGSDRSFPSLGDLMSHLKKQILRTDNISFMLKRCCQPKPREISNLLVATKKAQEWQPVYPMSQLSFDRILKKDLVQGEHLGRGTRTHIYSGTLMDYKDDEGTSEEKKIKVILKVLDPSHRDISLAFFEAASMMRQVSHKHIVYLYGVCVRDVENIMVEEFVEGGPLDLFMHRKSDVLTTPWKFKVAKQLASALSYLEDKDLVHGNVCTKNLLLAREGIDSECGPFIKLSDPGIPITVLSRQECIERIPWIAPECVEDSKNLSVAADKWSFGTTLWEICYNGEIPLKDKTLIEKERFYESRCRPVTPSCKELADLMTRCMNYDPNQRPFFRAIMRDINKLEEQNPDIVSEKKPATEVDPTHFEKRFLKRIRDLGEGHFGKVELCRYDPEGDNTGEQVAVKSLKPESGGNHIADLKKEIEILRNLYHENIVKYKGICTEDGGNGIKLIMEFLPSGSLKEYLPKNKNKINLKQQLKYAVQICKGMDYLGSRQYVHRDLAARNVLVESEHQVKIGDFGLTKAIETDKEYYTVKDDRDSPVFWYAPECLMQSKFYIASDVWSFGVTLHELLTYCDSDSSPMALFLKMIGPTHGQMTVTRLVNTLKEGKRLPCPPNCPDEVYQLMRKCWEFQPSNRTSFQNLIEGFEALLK

[4] = Efficacy on DSS induced ulcerative colitis (disease activity index); type: in vivo, mice
Protocol: In order to establish an ulcerative colitis model, 2.5% DSS powder was mixed with drinking water and provided ad libitum. The DSS powder-containing drinking water was supplied for 5 to 6 days of disease induction period, and after that, normal drinking water was supplied.
The administered compounds of Table 21 were administered orally once daily. Hematochezia, diarrhea and body weight loss were scored according to the criteria shown in the following Table 22, and the scores were summed to calculate a disease activity index (DAI), which is shown in FIG. 4.
Efficacy of Compound (4) on ulcerative colitis was verified in the same manner as in Experimental Example 10-1, except that Compound (4) was used instead of Compound (1), and DSS was administered until day 5, and the drug was administered from day 6.

[5] = Hematological toxicity evaluation after single oral administration (routine blood test); conditions: single oral dose 200 mg/kg and 800 mg/kg, compared with the normal group
[6] = tested on: IL-6 (Interleukin-6); experiment: Inhibition of inflammatory cytokine secretion in LPS-treated immune cells (IL-6 sandwich ELISA); type: cell-based; conditions: Mus musculus, RAW264.7, Raw 264.7, LPS 500 ng/mL, 24 hours, read-out: IL-6 Reduction Activity (%) (Mean±SD)
Protocol: Raw 264.7 cell line was seeded in a 48-well plate at a density of 8×10^4 cells/well, and cultured at 37°C in a DMEM medium including 10% FBS, 100 U/mL of penicillin and 100 µg/mL of streptomycin.
The medium was cultured overnight, and then replaced with a fresh medium including 10 µM of the pharmaceutical composition sensitive to nitrogen monoxide including the compound of each of Examples 1 and 11 to 13 and 500 ng/mL of LPS, and the fresh medium was cultured again for another 24 hours.
Lastly, the supernatant was collected, and then the level of IL-6 (Interleukin-6) expression was analyzed using a Sandwich enzyme-linked immunosorbent assay (ELISA). Specifically, a standard solution and 50 µL of the diluted supernatant were introduced to each well of a well plate coated with an antibody specific to IL-6, and after binding IL-6 to the immobilized antibody, the well was washed with a washing buffer, followed by a reaction with HRP as a secondary antibody for 30 minutes at room temperature. The well was washed three times with a washing buffer, then color was developed using TMB (3,3', 5,5'-tetramethyl benzidine) as a substrate, and the reaction was stopped using 1 M sulfuric acid to measure the degree of color development at an absorbance of 450 nm.

[7] = tested on: Raw 264.7 cell line; experiment: NO scavenging activity in LPS-treated immune cells (Griess reagent); type: cell-based; conditions: Mus musculus, RAW264.7, Raw 264.7, LPS 500 ng/mL, 24 hours, read-out: NO Scavenging Activity (%) (Mean±SD)

C[C@@H]1CCN(C(=O)CC#N)C[C@@H]1N(C)c1ncnc2c1ccn2C(=O)Nc1ccccc1N [Example 1, N-(2-aminophenyl)-4-(((3R,4R)-1-(2-cyanoacetyl)-4-methylpiperidin-3-yl) (methyl)amino)-7H-pyrrolo[2,3-d]pyrimidine-7-carboxamide]
activity at 10 µM [1]: 98.1 ± 0.09% | alleviation of rheumatoid arthritis compared with tofacitinib ([2]; 30 mg/kg and 60 mg/kg oral once daily, entire period of the experiment): comparable to or higher than 40 mg/kg of tofacitinib | average rheumatoid arthritis score compared with tofacitinib ([2]; 30 mg/kg oral once daily, FIG. 6): comparable to that of the group administered with 40 mg/kg of tofacitinib | rheumatoid arthritis-alleviating efficacy (arthritis score) ([2]; 30 mg/kg oral once daily, day 42 to day 47 after disease induction, FIG. 6): no statistically significant alleviating efficacy was observed | rheumatoid arthritis-alleviating efficacy (arthritis score) ([2]; 30 mg/kg oral once daily, day 49 to the end of the experiment (p<0.05), FIG. 6): statistically significant alleviating efficacy was observed again | rheumatoid arthritis-alleviating efficacy (arthritis score) ([2]; 30 mg/kg oral once daily, from day 35 after disease induction (p<0.05), FIG. 6): Alleviating efficacy was observed | rheumatoid arthritis-alleviating efficacy compared with tofacitinib ([2]; 60 mg/kg oral once daily, from day 33 after disease induction (p<0.01) to the end, FIG. 6): comparable to or higher than that of the group administered with 40 mg/kg of tofacitinib | JAK 1 Activity ([3]; 0.1 nM): 101 | JAK 1 Activity ([3]; 1 nM): 102 | JAK 1 Activity ([3]; 10 nM): 45 | JAK 1 Activity ([3]; 100 nM): 7 | efficacy on disease activity index (DAI) ([4]; 25 mg/kg oral once daily from day 3, day 7 of the test, p<0.01, FIG. 4): statistically significant efficacy was observed | efficacy in alleviating ulcerative colitis compared to tofacitinib ([4]; 25 mg/kg oral once daily, FIGS. 4 and 5): comparable to that of tofacitinib on average; also recorded: comparable or more superior efficacy | hematological toxicity responses [5]: No hematological toxicity responses were observed | activity at 10 µM [6]: 93.6 ± 0.6% | activity at 10 µM [7]: 77.4 ± 0.52%

— patent EP4741395A1, “NOVEL COMPOUND SENSITIVE TO NITROGEN MONOXIDE AND PHARMACEUTICAL COMPOSITION COMPRISING SAME” (Omniamed Co. Ltd, priority 2023, dated 2025)
